This assay concerns the target T1, recombinant human renin (Homo sapiens, UniProt P00797).
T1 sequence (P00797 67-406): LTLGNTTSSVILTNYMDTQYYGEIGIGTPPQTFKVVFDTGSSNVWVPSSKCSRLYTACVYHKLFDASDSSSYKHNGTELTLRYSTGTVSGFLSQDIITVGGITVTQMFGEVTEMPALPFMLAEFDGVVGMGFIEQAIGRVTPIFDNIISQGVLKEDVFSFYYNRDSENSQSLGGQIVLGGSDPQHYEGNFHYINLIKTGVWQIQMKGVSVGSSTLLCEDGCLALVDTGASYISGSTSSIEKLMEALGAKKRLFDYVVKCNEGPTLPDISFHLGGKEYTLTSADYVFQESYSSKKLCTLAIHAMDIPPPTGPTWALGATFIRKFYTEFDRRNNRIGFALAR
The experiment in a line: Primary renin inhibition assay: IC50 in buffer, 384 well MTP (AngI quantified by EIA).

One compound from patent publication US20090062342A1, “AMINES” (Actelion Pharmaceuticals Ltd., priority 2006, published 2009) can be followed below.

Experimental: Enzyme Immuno Assay (EIA) to Estimate AngI Accumulation and Renin Inhibition
The mixture was incubated overnight at 4° C., then dialyzed against 2 liters of 0.9% NaCl, twice for 4 h at rt, followed by dialysis against 2 liters of PBS 1× overnight at rt. […] The conjugate can be stored in polypropylene tubes in 0.05% sodium azide at 4° C. for at least 12 months.
The AngI (1-10)/BSA coated MTP were washed 3 times with wash buffer (PBS 1×, 0.01% Tween 20) and filled with 75 μl of primary antibody solution (anti-AngI antiserum, pre-diluted 1:10 in horse serum), diluted to a final concentration of 1:100'000 in assay buffer (PBS 1×, 1 mM EDTA, 0.1% BSA, pH 7.4). 5 μl of the renin reaction (or standards in assay buffer) (see below) were added to the primary antibody solution and the plates were incubated overnight at 4° C. […]
In the second step, the accumulated AngI is measured by an immunological assay (enzyme immuno assay, EIA). […]
Test compounds were dissolved and diluted in 100% DMSO and 2.5 μl added to the premix, then incubated at 37° C. for 3 h. At the end of the incubation period, 5 μl of the renin reaction (or standards in assay buffer) were transferred into EIA assays (as described above) and AngI produced by renin was quantified.

Consider `COCCCc1cc(CN(C(=O)[C@H]2CNCC[C@]2(O)c2ccc(OCCOc3c(Cl)cc(C)cc3Cl)nc2)C2CC2)c(Cl)c[n+]1[O-]` [Example 7, (3′S,4′R)-6-[2-(2,6-Dichloro-4-methyl-phenoxy)-ethoxy]-4′-hydroxy-1′,2′,3′,4′,5′,6′-hexahydro-[3,4′]bipyridinyl-3′-carboxylic acid [5-chloro-2-(3-methoxy-propyl)-1-oxy-pyridin-4-ylmethyl]-cyclopropyl-amide], for which the concentration for half-maximal inhibition (IC50) (usually the concentration that gives 50% inhibition) was found to be 0.23 nM.
